Test results reported in patent publication US20220380331A1, “TREATMENT OF CONDITIONS OF THE NERVOUS SYSTEM” (priority 2019, published 2022).

Key:
PNN-HEK293 cells = experiment: Immunocytochemistry of PNN formation (WFA) with PNNi analogues; type: cell-based, human; details: 0.5 mM and 1 mM, 3 days in vitro
Description: To compare the efficacy of PNNi, JD009, and JD013 in reducing PNN formation, immunocytochemistry was conducted using the N-acetylgalactosamine-binding lectin WFA to label PNNs. PNN-HEK293 cells were exposed to 0.5 mM and 1 mM of the compounds for 3 days in vitro. […] Quantification of WFA fluorescence intensity per cell was derived in matched regions of interest (ROI) and normalising overall WFA fluorescence intensity to cell number.

[1] = Solubility in aqueous solution; type: physicochemical
Excerpt: The inventors hypothesised that since the hydroxyl functional groups required for activity were not altered when designing the PNNi analogues, they should retain the capacity to potently reduce PNNs.

Row | SMILES | PNN morphology and expression (WFA fluorescence intensity per cell) (PNN-HEK293 cells) | solubility relative to PNNi [1]
1 | CN(C)Cc1cc(=O)oc2cc(O)ccc12 [JD009] | altered PNN expression | increased solubility
2 | O=c1cc(CN2CCOCC2)c2ccc(O)cc2o1 [JD013, 7-hydroxy-4-[(morpholin-4-yl)methyl]-2H-1-benzopyran-2-one] | altered PNN expression | increased solubility
